# Results from patent US6737383B1, “Herbicidal oxadiazolidines” (priority 1999, dated 2004).
# What was measured:
# velvetleaf = assay: Test B pre/postemergence velvetleaf; type: in vivo, Abutilon theophrasti
# Method in brief: (§1)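 Test chemicals in a non-phytotoxic solvent mixture with surfactant were sprayed preemergence onto planted seeds and postemergence onto plants 2 to 18 cm tall (1- to 4-leaf stage). After twelve to sixteen days in a greenhouse, injury was visually rated against untreated controls from 0 (no effect) to 10 (complete control).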
# pigweed = assay: Test B pre/postemergence pigweed; type: in vivo, Amaranthus retroflexus
# Method in brief: as §1
# bamyardgrass = assay: Test B flood test barnyardgrass; type: in vivo, Echinochloa crus-galli
# Method in brief: (§2)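 Each value is a visual injury score relative to controls, with 10 meaning complete control and 0 no effect. Evaluation took place twelve to sixteen days after the 2-leaf-stage plants were treated and kept in the greenhouse.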
# smallflower flatsedge = assay: Test B flood test smallflower flatsedge; type: in vivo, Cyperus difformis
# Method in brief: as §2
# rice = assay: Test B flood test rice; type: in vivo, Oryza sativa
# Method in brief: as §2
# crabgrass = assay: Test B pre/postemergence crabgrass; type: in vivo, Digitaria sanguinalis
# Method in brief: as §1
# morningglory = assay: Test B pre/postemergence morningglory; type: in vivo, Ipomoea hederacea
# Method in brief: as §1
# soybean = assay: Test B pre/postemergence soybean; type: in vivo, Glycine max
# Method in brief: as §1
# surinam grass = assay: Test B pre/postemergence surinam grass; type: in vivo, Brachiaria decumbens
# Method in brief: as §1
# giant foxtail = assay: Test B pre/postemergence giant foxtail; type: in vivo, Setaria faberii
# Method in brief: as §1
# bedstraw = assay: Test B pre/postemergence bedstraw; type: in vivo, Galium aparine
# Method in brief: as §1
# cocklebur = assay: Test B pre/postemergence cocklebur; type: in vivo, Xanthium strumarium
# Method in brief: as §1
# blackgrass = assay: Test B pre/postemergence blackgrass; type: in vivo, Alopecurus myosuroides
# Method in brief: as §1
# wild oat = assay: Test B pre/postemergence wild oat; type: in vivo, Avena fatua
# Method in brief: as §1
# purple nutsedge = assay: Test B pre/postemergence purple nutsedge; type: in vivo, Cyperus rotundus
# Method in brief: as §1
# wheat = assay: Test B pre/postemergence wheat; type: in vivo, Triticum aestivum
# Method in brief: as §1
# [1] = Postemergence, Rate 62 g/ha, scale 0 to 10, 0 is no effect, 10 is complete control
# [2] = Postemergence, Rate 125 g/ha, scale of 0 to 10 where 0 is no effect and 10 is complete control
# [3] = Postemergence, Rate 250 g/ha, scale of 0 to 10, 0 is no effect, 10 is complete control
# [4] = Preemergence, Rate 62 g/ha, scale 0 to 10 (0 no effect, 10 complete control)
# [5] = Preemergence, Rate 125 g/ha, scale of 0 to 10 where 0 is no effect and 10 is complete control
# [6] = Preemergence, Rate 250 g/ha, scale 0 to 10 (0 no effect, 10 complete control)
# [7] = Preemergence, Rate 500 g/ha, scale of 0 to 10 where 0 is no effect and 10 is complete control
# [8] = Rate 62 g/ha, flood test species, Pre-emergence, visual evaluation after twelve to sixteen days
# [9] = Rate 125 g/ha, under heading Pre-emergence, flood test species, visual evaluation after twelve to sixteen days
# [10] = Rate 250 g/ha, Pre-emergence (flood test species), scale 0 to 10, 0 is no effect, 10 is complete control
# [11] = Rate 500 g/ha, Pre-emergence section of Table B, 0 to 10 scale (0 no effect, 10 complete control)
# [12] = Postemergence, Rate 500 g/ha, scale of 0 to 10 where 0 is no effect and 10 is complete control
smiles,measurement,setting,value
CCOC(Cn1c(=O)on(C(=O)N(c2ccc(F)cc2)C(C)C)c1=O)OCC [Compound 629],"Plant response rating, Velvetleaf",velvetleaf; [1],0
same,"Plant response rating, Velvetleaf",velvetleaf; [2],5
same,Velvetleaf plant response rating,velvetleaf; [3],5
same,Velvetleaf plant response rating,velvetleaf; [4],3
same,Velvetleaf plant response rating,velvetleaf; [5],6
same,"Plant response rating, Velvetleaf",velvetleaf; [6],6
same,"Plant response rating, Velvetleaf",velvetleaf; [7],8
same,"Plant response rating, Redroot pigweed",pigweed; [1],0
same,Redroot pigweed plant response rating,pigweed; [3],2
same,Redroot pigweed plant response rating,pigweed; [4],2
same,Redroot pigweed plant response rating,pigweed; [5],10
same,"Plant response rating, Redroot pigweed",pigweed; [6],10
same,"Plant response rating, Redroot pigweed",pigweed; [7],10
same,"Plant response rating, Barnyardgrass (0 to 10 scale, 0 is no effect, 10 is complete control)",bamyardgrass; [8],0
same,"Barnyardgrass plant response rating (0 to 10 scale, 0 is no effect, 10 is complete control)",bamyardgrass; [9],0
same,Barnyardgrass plant response rating,bamyardgrass; [10],0
same,Barnyardgrass plant response rating,bamyardgrass; [11],0
same,"Plant response rating, S. Flatsedge (0 to 10 scale, 0 is no effect, 10 is complete control)",smallflower flatsedge; [8],0
same,"S. Flatsedge plant response rating (0 to 10 scale, 0 is no effect, 10 is complete control)",smallflower flatsedge; [9],0
same,S. Flatsedge plant response rating,smallflower flatsedge; [10],0
same,S. Flatsedge plant response rating,smallflower flatsedge; [11],0
same,"Plant response rating, Rice (0 to 10 scale, 0 is no effect, 10 is complete control)",rice; [8],0
same,"Rice plant response rating (0 to 10 scale, 0 is no effect, 10 is complete control)",rice; [9],0
same,Rice plant response rating,rice; [10],0
same,Rice plant response rating,rice; [11],0
same,"Plant response rating, Crabgrass",crabgrass; [1],1
same,"Plant response rating, Crabgrass",crabgrass; [2],3
same,Crabgrass plant response rating,crabgrass; [3],8
same,"Plant response rating, Crabgrass",crabgrass; [12],9
same,Crabgrass plant response rating,crabgrass; [4],7
same,Crabgrass plant response rating,crabgrass; [5],9
same,"Plant response rating, Crabgrass",crabgrass; [6],9
same,"Plant response rating, Crabgrass",crabgrass; [7],10
same,"Plant response rating, Morningglory",morningglory; [1],2
same,"Plant response rating, Morningglory",morningglory; [2],2
same,Morningglory plant response rating,morningglory; [3],3
same,"Plant response rating, Morningglory",morningglory; [12],3
same,Morningglory plant response rating,morningglory; [4],0
same,Morningglory plant response rating,morningglory; [5],0
same,"Plant response rating, Morningglory",morningglory; [6],0
same,"Plant response rating, Morningglory",morningglory; [7],4
same,"Plant response rating, Soybean",soybean; [1],4
same,"Plant response rating, Soybean",soybean; [2],6
same,Soybean plant response rating,soybean; [3],7
same,Soybean plant response rating,soybean; [4],0
same,Soybean plant response rating,soybean; [5],0
same,"Plant response rating, Soybean",soybean; [6],0
same,"Plant response rating, Soybean",soybean; [7],0
same,"Plant response rating, B. signalgrass",surinam grass; [1],0
same,"Plant response rating, B. signalgrass",surinam grass; [2],1
same,B. signalgrass plant response rating,surinam grass; [3],3
same,"Plant response rating, B. signalgrass",surinam grass; [12],7
same,B. signalgrass plant response rating,surinam grass; [4],0
same,B. signalgrass plant response rating,surinam grass; [5],2
same,"Plant response rating, B. signalgrass",surinam grass; [6],5
same,"Plant response rating, B. signalgrass",surinam grass; [7],8
same,"Plant response rating, Giant foxtail",giant foxtail; [1],3
same,"Plant response rating, Giant foxtail",giant foxtail; [2],8
same,Giant foxtail plant response rating,giant foxtail; [3],9
same,"Plant response rating, Giant foxtail",giant foxtail; [12],9
same,Giant foxtail plant response rating,giant foxtail; [4],8
same,Giant foxtail plant response rating,giant foxtail; [5],10
same,"Plant response rating, Giant foxtail",giant foxtail; [6],10
same,"Plant response rating, Giant foxtail",giant foxtail; [7],10
same,"Plant response rating, Bedstraw",bedstraw; [1],3
same,"Plant response rating, Bedstraw",bedstraw; [2],5
same,Bedstraw plant response rating,bedstraw; [3],8
same,Bedstraw plant response rating,bedstraw; [4],0
same,Bedstraw plant response rating,bedstraw; [5],0
same,"Plant response rating, Bedstraw",bedstraw; [6],3
same,"Plant response rating, Bedstraw",bedstraw; [7],8
same,"Plant response rating, Cocklebur",cocklebur; [1],0
same,"Plant response rating, Cocklebur",cocklebur; [2],0
same,Cocklebur plant response rating,cocklebur; [3],0
same,"Plant response rating, Cocklebur",cocklebur; [12],2
same,Cocklebur plant response rating,cocklebur; [4],0
same,Cocklebur plant response rating,cocklebur; [5],0
same,"Plant response rating, Cocklebur",cocklebur; [6],3
same,"Plant response rating, Cocklebur",cocklebur; [7],7
same,"Plant response rating, Blackgrass",blackgrass; [1],3
same,"Plant response rating, Blackgrass",blackgrass; [2],8
same,Blackgrass plant response rating,blackgrass; [3],8
same,"Plant response rating, Blackgrass",blackgrass; [12],8
same,Blackgrass plant response rating,blackgrass; [4],4
same,Blackgrass plant response rating,blackgrass; [5],8
same,"Plant response rating, Blackgrass",blackgrass; [6],8
same,"Plant response rating, Blackgrass",blackgrass; [7],10
same,"Plant response rating, Wild oats",wild oat; [1],0
same,"Plant response rating, Wild oats",wild oat; [2],0
same,Wild oats plant response rating,wild oat; [4],0
same,Wild oats plant response rating,wild oat; [5],0
same,"Plant response rating, Wild oats",wild oat; [6],9
same,"Plant response rating, Wild oats",wild oat; [7],9
same,"Plant response rating, Nutsedge",purple nutsedge; [1],0
same,"Plant response rating, Nutsedge",purple nutsedge; [2],0
same,Nutsedge plant response rating,purple nutsedge; [3],0
same,"Plant response rating, Nutsedge",purple nutsedge; [12],0
same,Nutsedge plant response rating,purple nutsedge; [4],0
same,Nutsedge plant response rating,purple nutsedge; [5],2
same,"Plant response rating, Nutsedge",purple nutsedge; [6],5
same,"Plant response rating, Nutsedge",purple nutsedge; [7],5
same,"Plant response rating, Wheat",wheat; [1],0
same,"Plant response rating, Wheat",wheat; [2],0
same,Wheat plant response rating,wheat; [3],0
same,Wheat plant response rating,wheat; [4],0
same,Wheat plant response rating,wheat; [5],0
same,"Plant response rating, Wheat",wheat; [6],3
same,"Plant response rating, Wheat",wheat; [7],3
